Laboratory results from PubChem BioAssay AID330 (DTP/NCI, 2004).
“And” between values parts separate entries of the source, which are not always exact repeats. Equal values may be shown once. Inconclusive results and toxic doses are left out. Peptide text beside a SMILES is read from it. * marks the point of attachment. Cbz = O=C(OCc1ccccc1)*

System: P388 leukemia ip, CD2F1 mice, survival T/C
Assay: NCI In Vivo Anticancer Drug Screen. Data for tumor model P388 Leukemia (intraperitoneal) in CD2F1 (CDF1) mice
Conditions: endpoint: median survival time, higher = longer survival
In short: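 Mice carrying the transplanted tumor received test compound or vehicle. Survival was recorded in each group, and the value is the treated-group measurement divided by that of the vehicle-treated control group.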

[1] = dose: 25.0 mg/kg/injection, schedule: Q01DX005 (ip), vehicle: Klucel (hydroxypropylcellulose) (HPC)
[2] = dose: 50.0 mg/kg/injection, schedule: Q01DX005 (ip), vehicle: Klucel (hydroxypropylcellulose) (HPC)
[3] = dose: 100.0 mg/kg/injection, schedule: Q01DX005 (ip), vehicle: Klucel (hydroxypropylcellulose) (HPC)
[4] = dose: 15.0 mg/kg/injection, schedule: Q01DX005 (ip), vehicle: Klucel (hydroxypropylcellulose) (HPC)
[5] = dose: 30.0 mg/kg/injection, schedule: Q01DX005 (ip), vehicle: Klucel (hydroxypropylcellulose) (HPC)
[6] = dose: 60.0 mg/kg/injection, schedule: Q01DX005 (ip), vehicle: Klucel (hydroxypropylcellulose) (HPC)
[7] = dose: 50.0 mg/kg/injection, schedule: Q01DX005 (ip), vehicle: saline with Tween-80
[8] = dose: 100.0 mg/kg/injection, schedule: Q01DX005 (ip), vehicle: saline with Tween-80
[9] = dose: 200.0 mg/kg/injection, schedule: Q01DX005 (ip), vehicle: saline with Tween-80
[10] = dose: 60.0 mg/kg/injection, schedule: Q01DX005 (ip), vehicle: saline with Tween-80
[11] = dose: 50.0 mg/kg/injection, schedule: Q01DX009 (ip), vehicle: saline
[12] = dose: 100.0 mg/kg/injection, schedule: Q01DX009 (ip), vehicle: saline
[13] = dose: 200.0 mg/kg/injection, schedule: Q01DX009 (ip), vehicle: saline
[14] = dose: 12.5 mg/kg/injection, schedule: Q01DX009 (ip), vehicle: saline with Tween-80
[15] = dose: 25.0 mg/kg/injection, schedule: Q01DX009 (ip), vehicle: saline with Tween-80
[16] = dose: 50.0 mg/kg/injection, schedule: Q01DX009 (ip), vehicle: saline with Tween-80
[17] = dose: 12.5 mg/kg/injection, schedule: Q01DX005 (ip), vehicle: Klucel (hydroxypropylcellulose) (HPC)
[18] = dose: 100.0 mg/kg/injection, schedule: Q01DX001 (ip), vehicle: Klucel (hydroxypropylcellulose) (HPC)
[19] = dose: 100.0 mg/kg/injection, schedule: Q01DX009 (ip), vehicle: saline with Tween-80

SMILES: O=c1ncccn1[C@@H]1O[C@H](CO)[C@H](O)C1O (some centres undefined)
- T/C (dose: 6.25 mg/kg/injection, schedule: Q01DX009 (ip), vehicle: water): 103 % of control
- T/C (dose: 12.5 mg/kg/injection, schedule: Q01DX009 (ip), vehicle: water): 104 % of control
- T/C (dose: 25.0 mg/kg/injection, schedule: Q01DX009 (ip), vehicle: water): 101 % of control
- T/C (dose: 50.0 mg/kg/injection, schedule: Q01DX009 (ip), vehicle: water): 102 % of control
- T/C (dose: 100.0 mg/kg/injection, schedule: Q01DX009 (ip), vehicle: water): 108 % of control
- T/C (dose: 400.0 mg/kg/injection, schedule: Q01DX009 (ip), vehicle: saline): 152 % of control

SMILES: CC(C)=CCc1c(C)cc2cc3c(c(O)c2c1O)C(O)=CC(=O)C3(CC=C(C)C)C/C=C(\C)CO (centres undefined)
- T/C [1]: 103 % of control
- T/C [2]: 93 % of control
- T/C [3]: 97 % of control

SMILES: OCCNc1ncnc2cc(Cl)ccc12
- T/C [1]: 98 % of control
- T/C [2]: 95 % of control
- T/C [3]: 105 % of control
- T/C (dose: 200.0 mg/kg/injection, schedule: Q01DX005 (ip), vehicle: Klucel (hydroxypropylcellulose) (HPC)): 98 % of control

SMILES: CSC1=CC(=NCc2ccccc2)CC(C)(C)S1
- T/C [4]: 110 % of control
- T/C [5]: 104 % of control
- T/C [6]: 101 % of control and 105 % of control

SMILES: COc1ccc(Cc2c(O)ccc3ccccc23)cc1
- T/C [7]: 104 % of control
- T/C [8]: 104 % of control
- T/C [9]: 111 % of control

SMILES: CC(=O)c1c(Br)c2c3ccccc3c3ccccc3n2c1C
- T/C [10]: 107 % of control
- T/C (dose: 120.0 mg/kg/injection, schedule: Q01DX005 (ip), vehicle: saline with Tween-80): 106 % of control
- T/C (dose: 240.0 mg/kg/injection, schedule: Q01DX005 (ip), vehicle: saline with Tween-80): 92 % of control

SMILES: [Zn].c1c[nH]cn1.c1c[nH]cn1.c1c[nH]cn1.c1c[nH]cn1
- T/C (dose: 25.0 mg/kg/injection, schedule: Q01DX005 (ip), vehicle: saline with Tween-80): 107 % of control and 109 % of control
- T/C [7]: 106 % of control and 110 % of control and 115 % of control

SMILES: COc1cc2c(cc1O)-c1c(cnn1-c1ccccc1)CCC2
- T/C [11]: 119 % of control
- T/C [12]: 118 % of control
- T/C [13]: 94 % of control

SMILES: COn1nnc2c([N+](=O)[O-])cccc21
- T/C [14]: 100 % of control
- T/C [15]: 94 % of control
- T/C [16]: 98 % of control

SMILES: COc1cc(OC)cc(C(C)(C)C)c1
- T/C [11]: 97 % of control
- T/C [12]: 100 % of control
- T/C [13]: 107 % of control

SMILES: CN(CCCCCl)C(=O)Oc1ccccc1
- T/C (dose: 50.0 mg/kg/injection, schedule: Q01DX009 (ip), vehicle: Klucel (hydroxypropylcellulose) (HPC)): 102 % of control
- T/C (dose: 100.0 mg/kg/injection, schedule: Q01DX009 (ip), vehicle: Klucel (hydroxypropylcellulose) (HPC)): 106 % of control
- T/C (dose: 200.0 mg/kg/injection, schedule: Q01DX009 (ip), vehicle: Klucel (hydroxypropylcellulose) (HPC)): 99 % of control

SMILES: O=C1C(Cl)=C(NCCC2CCCN3CCCCC23)C(=O)c2ccccc21 (centres undefined)
- T/C [17]: 99 % of control and 101 % of control and 93 % of control
- T/C [1]: 98 % of control and 99 % of control and 97 % of control
- T/C [3]: 109 % of control and 111 % of control

SMILES: Cc1nc(N)nc2ccccc12
- T/C [4]: 100 % of control
- T/C [5]: 100 % of control
- T/C [6]: 99 % of control

SMILES: CNC(=O)OC1/C(C)=C\C(C)C(O)C(OC)CC(C)CC2=C(OC)C(=O)C=C(C2=O)N(C)C(=O)/C(C)=C/C=C\C1OC (centres undefined)
- T/C (dose: 3.12 mg/kg/injection, schedule: Q01DX009 (ip), vehicle: DMSO): 110 % of control and 98 % of control
- T/C (dose: 6.25 mg/kg/injection, schedule: Q01DX009 (ip), vehicle: DMSO): 99 % of control and 109 % of control and 110 % of control
- T/C (dose: 12.5 mg/kg/injection, schedule: Q01DX009 (ip), vehicle: DMSO): 104 % of control and 122 % of control and 123 % of control
- T/C (dose: 25.0 mg/kg/injection, schedule: Q01DX009 (ip), vehicle: DMSO): 109 % of control and 115 % of control and 122 % of control

SMILES: CNC(=O)OCc1c(COC(=O)NC)c(-c2ccc(Cl)cc2)n(C)c1-c1ccccc1
- T/C (dose: 12.5 mg/kg/injection, schedule: Q01DX009 (ip), vehicle: distilled water + Tween-80): 154 % of control
- T/C (dose: 25.0 mg/kg/injection, schedule: Q01DX009 (ip), vehicle: distilled water + Tween-80): 157 % of control and 172 % of control
- T/C (dose: 50.0 mg/kg/injection, schedule: Q01DX009 (ip), vehicle: distilled water + Tween-80): 181 % of control

SMILES: CC1NNC(=O)C1(Br)Br (centres undefined)
- T/C (dose: 6.25 mg/kg/injection, schedule: Q01DX009 (ip), vehicle: gum acacia): 100 % of control
- T/C (dose: 12.5 mg/kg/injection, schedule: Q01DX009 (ip), vehicle: gum acacia): 91 % of control

SMILES: CCN(CC)CCNc1ccnc(F)n1
- T/C (dose: 30.0 mg/kg/injection, schedule: Q01DX005 (ip), vehicle: saline with Tween-80): 101 % of control
- T/C [10]: 103 % of control

SMILES: CCSc1nsc(NC(C)=O)n1
- T/C [18]: 104 % of control
- T/C (dose: 200.0 mg/kg/injection, schedule: Q01DX001 (ip), vehicle: Klucel (hydroxypropylcellulose) (HPC)): 96 % of control
- T/C (dose: 400.0 mg/kg/injection, schedule: Q01DX001 (ip), vehicle: Klucel (hydroxypropylcellulose) (HPC)): 102 % of control

SMILES: O=C(O)CC(=O)O.[NH-]C1CCCC1[NH-].[Pt+2]
- T/C (dose: 6.25 mg/kg/injection, schedule: Q04DX002 (ip), vehicle: saline): 114 % of control
- T/C (dose: 50.0 mg/kg/injection, schedule: Q04DX002 (ip), vehicle: saline with Tween-80): 169 % of control
- T/C (dose: 100.0 mg/kg/injection, schedule: Q04DX002 (ip), vehicle: saline with Tween-80): 185 % of control
- T/C (dose: 200.0 mg/kg/injection, schedule: Q04DX002 (ip), vehicle: saline with Tween-80): 197 % of control

SMILES: O=C(NCCCl)Oc1cc(Cl)c(Cl)cc1Cl
- T/C [17]: 120 % of control
- T/C [1]: 111 % of control
- T/C [18]: 102 % of control

SMILES: CC1(C)OC2C(CO)OC(n3ccc(=O)[nH]c3=O)C2O1 (centres undefined)
- T/C (dose: 6.25 mg/kg/injection, schedule: Q01DX009 (ip), vehicle: saline with Tween-80): 107 % of control
- T/C [14]: 109 % of control
- T/C [15]: 100 % of control and 110 % of control and 120 % of control
- T/C [16]: 108 % of control and 92 % of control and 97 % of control
- T/C [19]: 90 % of control

SMILES: CCCOc1cccc2c1C(=O)c1c(O)c3c(c(O)c1C2=O)C[C@@](O)(C(C)=O)C[C@@H]3OC1CC(N)C(O)C(C)O1 (some centres undefined)
- T/C (dose: 3.13 mg/kg/injection, schedule: Q04DX003 (ip), vehicle: water): 105 % of control
- T/C (dose: 6.25 mg/kg/injection, schedule: Q04DX003 (ip), vehicle: water): 121 % of control
- T/C (dose: 12.5 mg/kg/injection, schedule: Q04DX003 (ip), vehicle: water): 121 % of control

SMILES: O=C1CSC(c2ccc(Cl)cc2)N1c1ccc(N2C(=O)CSC2c2ccc(Cl)cc2)cc1 (centres undefined)
- T/C (dose: 100.0 mg/kg/injection, schedule: Q01DX001 (ip), vehicle: saline with Tween-80): 94 % of control
- T/C (dose: 200.0 mg/kg/injection, schedule: Q01DX001 (ip), vehicle: saline with Tween-80): 91 % of control
- T/C (dose: 400.0 mg/kg/injection, schedule: Q01DX001 (ip), vehicle: saline with Tween-80): 91 % of control

SMILES: COc1cc2c(Cl)ncnc2c(OC)c1OC
- T/C [7]: 106 % of control
- T/C [8]: 106 % of control
- T/C [9]: 109 % of control

SMILES: COC(=O)C(NC(=O)C1CCCN1C(=O)OCc1ccccc1)C(C)C (stereo not drawn) (Cbz-Pro-Val-OMe; configuration not given here)
- T/C [16]: 98 % of control
- T/C [19]: 104 % of control
- T/C (dose: 200.0 mg/kg/injection, schedule: Q01DX009 (ip), vehicle: saline with Tween-80): 107 % of control

SMILES: [Cl-].[Cl-].[Co+3].[NH-]CC[NH-].[NH-]CC[NH-].[O-][Cl+3]([O-])([O-])O
- T/C [15]: 102 % of control
- T/C [16]: 105 % of control and 117 % of control
- T/C [19]: 111 % of control and 123 % of control

SMILES: COC(C)(C)c1cc(C(C)(C)C)cc2c1SOC2(C)C
- T/C (dose: 100.0 mg/kg/injection, schedule: Q04DX002 (ip), vehicle: Klucel (hydroxypropylcellulose) (HPC)): 94 % of control
- T/C (dose: 200.0 mg/kg/injection, schedule: Q04DX002 (ip), vehicle: Klucel (hydroxypropylcellulose) (HPC)): 100 % of control
- T/C (dose: 400.0 mg/kg/injection, schedule: Q04DX002 (ip), vehicle: Klucel (hydroxypropylcellulose) (HPC)): 114 % of control

SMILES: O=[N+]([O-])c1ccc(-c2nc3ccncc3[nH]2)cc1
- T/C [11]: 107 % of control
- T/C [12]: 104 % of control
- T/C [13]: 93 % of control
